Source: PMC7911295, “Metabolism of Zearalenone in the Rumen of Dairy Cows with and without Application of a Zearalenone-Degrading Enzyme” (Toxins, 2021)

What was measured:
MCF-7 cell = tested on: MCF-7 cell; parameters: method as in PMID 12596876, PMID 31434326; conditions: cited from earlier work
[1] = Feeding trial in rumen-fistulated dairy cows: ZEN and ZEN metabolites in feces; assay type: in vivo, Holstein Friesian cows; conditions: for Percentage of concentration relative to the sum of ZEN and ZEN metabolite concentrations: feces
Description: (§1) Ruminal metabolism of ZEN with and without supplementation of ZenA was investigated in four rumen-fistulated Holstein Friesian cows (sex: female; age at start: 5.9 ± 1.0 years; body weight at start: 863 ± 65 kg; physiological stage: non-lactating; general health: good, non-gestating; identification procedure: ear tag 4-digit code). The cows were part of the dairy herd of VetFarm (Teaching and Research Farm) of the University of Veterinary Medicine Vienna in Kremesberg, Austria. All procedures related to these experiments were performed according to Austrian law and following the European Guidelines for the Care and Use of Animals for Research Purpose. The animal experiment was approved by ethics and animal welfare commission of the University of Veterinary Medicine, Vienna and the Austrian Federal Ministry of Education, Science and Research (68.205/0156-WF/V/3b/2017, 30.08.2017).
(§2) In our trial setup, each animal was considered an experimental unit (n = 4). Each animal received the same treatment and served as its own control. First, each animal received ZEN-contaminated concentrate feed. Following a 48-h washout period, each animal received ZEN-contaminated concentrate feed supplemented with ZenA. In brief, for acclimatization, on the day prior to the start of the feeding trial, each animal was manually fed 4 × 500 g of control concentrate (Table 4 and Table 5). Thereafter, animals were manually fed (i) 1 × 500 g concentrate contaminated with ZEN and 3 × 500 g control concentrate on experimental day 1 (ZEN treatment), (ii) 4 × 500 g control concentrate on day 2 (ZEN washout), (iii) 1 × 500 g ZEN-contaminated concentrate supplemented with ZenA and 3 × 500 g control concentrate on day 3 (ZEN+ZenA treatment), and (iv) 4 × 500 g control concentrate on day 4 (ZEN+ZenA washout; Table 6). Animals were treated and assessed in the same random order at each experimental time point.
On days 1 and 3 of the experiment, feces samples were taken from the rectum immediately before concentrate feeding (0 h), as well as 10 h after concentrate feeding (Table 6) and stored at −20 °C. Aliquots (500 mg) of thoroughly homogenized feces samples were extracted for HPLC-MS/MS analysis according to the method described by Binder and coworkers.
HPLC-MS/MS analysis of ZEN, α-ZEL, β-ZEL, HZEN and DHZEN in rumen fluid and feces was performed as described for the in vitro rumen fermentation experiment (see section “In Vitro Rumen Fermentation Experiment”, subsection “Analysis of ZEN and its Metabolites”), with the following modifications. Chromatographic separation was performed with a flow rate of 0.6 mL/min, a duration of 4 min and an injection volume was 1 µL. The gradient started at 30% B which was held for 0.3 min. Subsequently, the proportion of B was increased to 80% from 0.3 to 2 min, and increased to 100% from 2 to 2.1 min. […] LODs for ZEN, α-ZEL, β-ZEL, HZEN and DHZEN in rumen fluid were 2.83 nmol/L (0.9 µg/L), 2.81 nmol/L (0.9 µg/L), 2.81 nmol/L (0.9 µg/L), 2.68 nmol/L (0.9 µg/L) and 10.27 nmol/L (3 µg/L), respectively. LOQs for ZEN, α-ZEL, β-ZEL, HZEN and DHZEN in rumen fluid were 9.43 nmol/L (3 µg/L), 9.37 nmol/L (3 µg/L), 9.37 nmol/L (3 µg/L), 8.93 nmol/L (3 µg/L) and 30.81 nmol/L (9 µg/L), respectively. LODs for ZEN, α-ZEL, β-ZEL, HZEN and DHZEN in feces were 0.03 nmol/g (8.4 ng/g), 0.03 nmol/g (8.4 ng/g), 0.03 nmol/g (8.4 ng/g), 0.03 nmol/g (8.4 ng/g) and 0.10 nmol/g (28 ng/g), respectively. LOQs for ZEN, α-ZEL, β-ZEL, HZEN and DHZEN in feces were 0.09 nmol/g (28 ng/g), 0.09 nmol/g (28 ng/g), 0.09 nmol/g (28 ng/g), 0.08 nmol/g (28 ng/g) and 0.29 nmol/g (84 ng/g), respectively.

pigs = tested on: pigs; parameters: method as in PMID 31434326; conditions: in contrast to ZEN; cited from earlier work
[2] = for Detection in reactors: reactors incubated with ZEN without ZenA, any time point
[3] = Feeding trial in rumen-fistulated dairy cows: ZEN and ZEN metabolites in rumen fluid from reticulum, dorsal mat layer and ventral sac; assay type: in vivo, Holstein Friesian cows; conditions: for Detection in rumen fluid: any reticulorumen location
Description: as §1, §2
For production of ZEN-contaminated concentrate feed, lyophilizate of ZEN with maltodextrin as a carrier was prepared. To this end, in three parallel preparations, 50 mg ZEN (Fermentek, Jerusalem, Israel) was dissolved in 1 L RO water (pH 12; adjusted with NaOH) using a magnetic stirrer set to 400 rpm and 37 °C for 20 min. Subsequently, 100 g maltodextrin DE19 (Agrana, Vienna, Austria) was added and dissolved by stirring (400 rpm) at room temperature for 10 min. The solution was lyophilized. Lyophilizate was mixed into concentrate feed at an inclusion rate of 2%. The final concentration of ZEN in feed was aimed to be 10 mg/kg and was verified using HPLC-MS/MS analysis as described below. For production of ZEN-contaminated, ZenA-supplemented concentrate, a zearalenone hydrolase ZenA preparation (ZENzyme®; EC 3.1.1.-; BIOMIN Holding GmbH, Getzersdorf, Austria) was mixed into ZEN-contaminated concentrate to achieve an activity of 128 U/kg feed. Same as in the in vitro trial, 1 U of ZenA was defined as the enzyme activity that hydrolyzes 1 μmol ZEN per minute from 15.71 µM ZEN in Teorell Stenhagen buffer adjusted to pH 7.5 containing 0.1 mg/mL bovine serum albumin at 37 °C.
On days 1 and 3 of the trial (ZEN and ZEN+ZenA treatment, respectively), ruminal digesta samples were taken from reticulum, ventral sac and dorsal mat layer (Figure 3) immediately before concentrate feeding (0 h), as well as 15 min, 1 h, 2 h, 4 h, 7 h and 10 h after concentrate feeding (Table 6). On days 2 and 4 of the trial (washout days), ruminal digesta samples were taken immediately before first concentrate feeding (0 h), as well as 10 h after first concentrate feeding (Table 6). Ruminal digesta samples (10 mL) were taken via a rumen fistula from reticulum and ventral sac (10 cm above the bottom of the rumen) using a pump as described previously. Samples were taken from the dorsal mat layer 20 cm below the gas phase and rumen fluid was obtained by manually squeezing the samples as described previously. Samples were mixed 1:2 with acetonitrile by vortexing. […]

estrogen-sensitive yeast = tested on: estrogen-sensitive yeast; parameters: method as in PMID 31434326; conditions: cited from earlier work
[4] = ZEN+ZenA treatment, 0 h (48 h after ZEN treatment)
[5] = reticulorumen, ZEN treatment, 15 min after feeding, from median of 3 locations
[6] = reticulorumen, ZEN treatment, 1 h
[7] = reticulorumen, ZEN treatment, 4 h
[8] = reticulorumen, ZEN treatment, 7 h
[9] = reticulorumen, ZEN treatment, 10 h
[10] = reticulorumen, ZEN treatment, 24 h
[11] = reticulorumen, ZEN+ZenA treatment, 15 min
[12] = reticulorumen, ZEN+ZenA treatment, 1 h
[13] = reticulorumen, ZEN+ZenA treatment, 4 h
[14] = reticulorumen, ZEN+ZenA treatment, 7 h
[15] = reticulorumen, ZEN+ZenA treatment, 10 h

Row | SMILES | Estrogenic response (MCF-7 cell) | Percentage of concentration relative to the sum of ZEN and ZEN metabolite concentrations ([1]; ZEN treatment, 10 h) [%] | Percentage of concentration relative to the sum of ZEN and ZEN metabolite concentrations [1, 4] [%] | Percentage of concentration relative to the sum of ZEN and ZEN metabolite concentrations ([1]; ZEN+ZenA treatment, 10 h) [%] | Effect on reproductive tract morphology or expression of ZEN-responsive microRNAs (pigs) | Detection in reactors [2] | Detection in rumen fluid ([3]; ZEN treatment) | Percentage of concentration relative to the sum of ZEN and ZEN metabolite concentrations [3, 5] [%] | Percentage of concentration relative to the sum of ZEN and ZEN metabolite concentrations [3, 6] [%] | Percentage of concentration relative to the sum of ZEN and ZEN metabolite concentrations [3, 7] [%] | Percentage of concentration relative to the sum of ZEN and ZEN metabolite concentrations [3, 8] [%] | Percentage of concentration relative to the sum of ZEN and ZEN metabolite concentrations [3, 9] [%] | Percentage of concentration relative to the sum of ZEN and ZEN metabolite concentrations [3, 10] [%] | Percentage of concentration relative to the sum of ZEN and ZEN metabolite concentrations [3, 11] [%] | Percentage of concentration relative to the sum of ZEN and ZEN metabolite concentrations [3, 12] [%] | Percentage of concentration relative to the sum of ZEN and ZEN metabolite concentrations [3, 13] | Percentage of concentration relative to the sum of ZEN and ZEN metabolite concentrations [3, 14] | Percentage of concentration relative to the sum of ZEN and ZEN metabolite concentrations [3, 15] | Estrogenic response (estrogen-sensitive yeast) | further results
1 | C[C@H](O)CCCC(=O)CCC/C=C/c1cc(O)cc(O)c1 [DHZEN, decarboxylated hydrolyzed zearalenone] | did not elicit an estrogenic response | 0.0 | 0.0 | 0.0 | did not affect | not detected | not detected | 0.0 | 0.0 | 0.0 | 0.0 | 0.0 | 0.0 | 0.0 | 0.0 | 0.0 (traces) % | 0.0 (traces) % | 0.0 (traces) % | did not elicit an estrogenic response | Detection in feces ([1]; ZEN and ZEN+ZenA treatments, any sample): not detected; First detected (time after start of incubation) ([2]; reactors incubated with ZEN and ZenA (100 U/kg feed)): 2 h
2 | C[C@H](O)CCCC(=O)CCC/C=C/c1cc(O)cc(O)c1C(=O)O [HZEN, hydrolyzed zearalenone] | did not elicit an estrogenic response | 0.0 | 0.0 | 31.9 | did not affect | not detected | not detected | 0.0 | 0.0 | 0.0 | 0.0 | 0.0 | 0.0 | 94.1 | 100.0 | 100.0% | 100.0% | 100.0% | did not elicit an estrogenic response | Not detected anymore at (time after concentrate feeding) ([3]; reticulorumen, ZEN+ZenA treatment): 24 h
